Measured values as given in ChEMBL document CHEMBL1156023, “Grassystatins A-C from marine cyanobacteria, potent cathepsin E inhibitors that reduce antigen presentation” (J Med Chem, 2009).

Columns and labels:
[1] = biological target: Disintegrin and metalloproteinase domain-containing protein 9 (Homo sapiens, UniProt Q13443); test: Inhibition of ADAM9
[2] = biological target: Disintegrin and metalloproteinase domain-containing protein 17 (Homo sapiens, UniProt P78536)
[3] = biological target: Disintegrin and metalloproteinase domain-containing protein 10 (Homo sapiens, UniProt O14672); test: Inhibition of ADAM10
Sequence of Disintegrin and metalloproteinase domain-containing protein 10 (O14672 whole entry, the tested form may be a part): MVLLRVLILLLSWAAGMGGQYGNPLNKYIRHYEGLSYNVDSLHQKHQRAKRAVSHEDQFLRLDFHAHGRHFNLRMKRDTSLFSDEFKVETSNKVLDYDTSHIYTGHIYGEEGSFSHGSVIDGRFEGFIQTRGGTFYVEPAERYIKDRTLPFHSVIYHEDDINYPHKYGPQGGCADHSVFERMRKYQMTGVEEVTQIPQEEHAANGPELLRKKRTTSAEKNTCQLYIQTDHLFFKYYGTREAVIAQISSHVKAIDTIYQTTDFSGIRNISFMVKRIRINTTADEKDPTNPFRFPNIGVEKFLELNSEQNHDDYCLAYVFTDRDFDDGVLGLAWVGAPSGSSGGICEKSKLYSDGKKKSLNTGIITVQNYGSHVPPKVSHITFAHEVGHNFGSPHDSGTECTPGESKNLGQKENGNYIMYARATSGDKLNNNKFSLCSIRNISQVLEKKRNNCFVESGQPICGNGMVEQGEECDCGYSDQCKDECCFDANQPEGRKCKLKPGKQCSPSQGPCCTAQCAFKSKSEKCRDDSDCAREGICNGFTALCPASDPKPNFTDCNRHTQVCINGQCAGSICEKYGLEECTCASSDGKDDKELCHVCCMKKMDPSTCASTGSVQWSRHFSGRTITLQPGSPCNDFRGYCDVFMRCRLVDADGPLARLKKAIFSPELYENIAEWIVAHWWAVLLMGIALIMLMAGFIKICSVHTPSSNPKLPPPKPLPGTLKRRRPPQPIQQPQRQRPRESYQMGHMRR

Sequence of Disintegrin and metalloproteinase domain-containing protein 9 (Q13443 whole entry, the tested form may be a part): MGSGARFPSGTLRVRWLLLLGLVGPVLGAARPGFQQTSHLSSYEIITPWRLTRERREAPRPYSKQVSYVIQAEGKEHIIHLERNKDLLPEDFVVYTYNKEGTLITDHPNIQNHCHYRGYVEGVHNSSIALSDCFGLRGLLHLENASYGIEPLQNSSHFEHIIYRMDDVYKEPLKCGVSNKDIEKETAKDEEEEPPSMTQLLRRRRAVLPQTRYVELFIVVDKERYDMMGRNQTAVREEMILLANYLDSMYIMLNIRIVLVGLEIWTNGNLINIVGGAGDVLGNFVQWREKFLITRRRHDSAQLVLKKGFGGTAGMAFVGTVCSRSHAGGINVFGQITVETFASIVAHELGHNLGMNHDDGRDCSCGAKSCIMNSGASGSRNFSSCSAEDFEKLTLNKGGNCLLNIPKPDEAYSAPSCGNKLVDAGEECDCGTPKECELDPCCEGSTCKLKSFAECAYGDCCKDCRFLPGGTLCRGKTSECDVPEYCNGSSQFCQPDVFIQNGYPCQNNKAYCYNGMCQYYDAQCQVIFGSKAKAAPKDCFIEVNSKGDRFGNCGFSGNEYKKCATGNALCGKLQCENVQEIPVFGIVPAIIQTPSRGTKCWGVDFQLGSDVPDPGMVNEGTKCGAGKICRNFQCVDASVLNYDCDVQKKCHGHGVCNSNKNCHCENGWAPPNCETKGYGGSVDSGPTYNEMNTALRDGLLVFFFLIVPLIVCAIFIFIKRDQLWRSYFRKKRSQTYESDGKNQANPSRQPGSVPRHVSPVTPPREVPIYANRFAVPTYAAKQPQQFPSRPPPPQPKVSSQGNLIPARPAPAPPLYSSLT
Sequence of Disintegrin and metalloproteinase domain-containing protein 17 (P78536 whole entry, the tested form may be a part): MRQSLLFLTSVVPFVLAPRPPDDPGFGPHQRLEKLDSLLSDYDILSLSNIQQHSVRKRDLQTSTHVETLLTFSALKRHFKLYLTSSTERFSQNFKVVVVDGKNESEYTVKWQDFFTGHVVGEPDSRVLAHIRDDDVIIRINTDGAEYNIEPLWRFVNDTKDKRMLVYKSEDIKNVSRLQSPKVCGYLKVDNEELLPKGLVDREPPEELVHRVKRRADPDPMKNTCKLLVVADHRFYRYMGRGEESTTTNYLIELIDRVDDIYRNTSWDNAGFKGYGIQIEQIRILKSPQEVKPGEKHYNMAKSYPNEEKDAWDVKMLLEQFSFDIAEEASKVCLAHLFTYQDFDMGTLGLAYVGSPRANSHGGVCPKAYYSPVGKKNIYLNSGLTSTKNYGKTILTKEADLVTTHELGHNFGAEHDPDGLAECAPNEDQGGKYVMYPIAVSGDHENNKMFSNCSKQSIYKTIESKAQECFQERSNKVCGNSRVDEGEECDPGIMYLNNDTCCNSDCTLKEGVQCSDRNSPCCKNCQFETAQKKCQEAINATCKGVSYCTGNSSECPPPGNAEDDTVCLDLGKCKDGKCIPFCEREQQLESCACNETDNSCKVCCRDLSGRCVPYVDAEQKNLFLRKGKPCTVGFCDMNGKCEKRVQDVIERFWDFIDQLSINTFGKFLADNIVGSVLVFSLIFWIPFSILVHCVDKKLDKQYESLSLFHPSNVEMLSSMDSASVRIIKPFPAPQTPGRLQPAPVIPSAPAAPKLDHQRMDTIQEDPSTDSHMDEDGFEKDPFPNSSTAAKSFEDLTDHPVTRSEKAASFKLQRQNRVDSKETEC

IC50 [1]: 56.3 nM | IC50 [2]: 13.1 nM | IC50 [3]: 263 nM
Structure (SMILES): CNC(=O)[C@H](Cc1c[nH]c2ccccc12)NC(=O)[C@@H](CC(=O)NO)CC(C)C [ILOMASTAT]
